In patent publication US10045939B2, “Unit doses, aerosols, kits, and methods for treating heart conditions by pulmonary administration” (InCarda Therapeutics, Inc., priority 2009, dated 2018):
Where a name gives a salt, the structure may show the parent alone. Read-outs that look alike come from different tables or passages of the source.

Tests used:
[1] = cited from earlier work
[2] = test system: induced supraventricular tachycardia; assay: Induced supraventricular tachycardia (SVT) model in anesthetized dogs, intratracheal (IT) vs intravenous administration; type: in vivo, dog; settings: for cardiovascular effect when given intratracheally (summary): intratracheal, summary of study
Protocol: A venous catheter was placed in a peripheral vessel (i.e., cephalic) for administration of anesthetic(s). For anesthesia induction, all animals were given a combination of diazepam (˜0.5 mg/kg) and ketamine (˜10 mg/kg) intravenously through this venous catheter. Anesthesia was sustained until completion of the study with an intravenous infusion of pentobarbital (5-15 mg/kg/hr). Following induction, animals were endotracheally intubated and mechanically ventilated (˜12 breaths/min with a tidal volume of 200-300 mL).
Subsequently, a cut-down on a jugular vein permitted the introduction of a pacing lead into the right atrium. Similarly, for arterial pressure monitoring, a solid-state micromanometer catheter (Millar Instruments) was advanced into the aortic root via a cut-down over an artery (e.g., femoral, carotid). Transthoracic electrodes forming ECG lead II was placed. For vehicle/test article delivery, a 4F catheter was introduced through the trachea and wedged into a small airway, and a venous catheter was placed in a peripheral vessel (i.e., cephalic).
Following instrumentation/hemodynamic stabilization (for at least 15 minutes), right atrial pacing (5-10 V, 40 Hz, 2 ms pulses) was established in order to induce supraventricular tachycardia (SVT); pacing and SVT was sustained throughout the duration of the experiments. Approximately 5 minutes after onset of SVT and while monitoring ECG/arterial pressure continuously, the animals were administered three escalating doses (one at a time) of a test article; each dose was delivered as a bolus (˜3 mL) directly into a small airway through the intratracheal catheter (IT). Following dosing, the heart-rate (HR) and arterial pressure response were monitored for 15 minutes.
Subsequently (once the response to three IT doses had been recorded), hemodynamic recovery was allowed for approximately 30 minutes, and the electrocardiographic/hemodynamic response to the highest test-article dose was re-evaluated; however, for comparison purposes, this dose was delivered intravenously (IV).
Overall, two groups/test-articles were studied, and up to two animals were assigned to each group (n=2/group): one group received esmolol HCL (0.5-1.0 mg/kg, ESM), while the other received adenosine (0.25-1.0 mg/kg, ADN); only one test article was administered to per animal.

[3] = human, in vivo
Protocol: The following solution strengths were prepared for taste evaluation: (1) diltiazem hydrochloride—50 mg/ml solution in distilled water; and (2) flecainide acetate—30 mg/ml solution in distilled water.
The Aeroneb®GO device was used because it is a simple-to-use device developed specifically for patients who require respiratory therapy in and away from the home. The device can be used by patients of all ages (infant through adult) and aerosolizes solutions intended for inhalation. Aeroneb® Go works with either an AC wall controller or a battery pack, and can be cleaned with soap and water. More details about this device can be obtained at www.aerogen.com.
Number of subjects: 2 healthy male volunteers
Water was poured into the nebulizer cup, and the nebulizer was turned on. The visible cloud of aerosol generated when the nebulizer was turned on was treated as a qualitative aerosol standard.
About 1 ml of the 30 mg/ml solution was poured into the cup of the nebulizer. The nebulizer was turned on and the resulting aerosol was similar to but not as dense as the aerosol formed with the water alone.
The nebulizer was then placed in the mouth and switched on. Deep lung inhalation was performed through the nebulizer. About 40 μl (˜1.2 mg of flecainide acetate) of the test solution was inhaled. The inhaled dose was sub-therapeutic in nature as it was much less than the regular 100 mg administered as tablets. Flecainide acetate is also available as an IV injection in Europe as 10 mg/ml strength in 15 ml ampoules.
About 1 ml of the 50 mg/ml solution was poured into the cup of the nebulizer. The nebulizer was turned on and the resulting aerosol was similar to but not as dense as the aerosol formed with the water alone.
The nebulizer was then placed in the mouth and a switched on. Deep lung inhalation was performed through the nebulizer. About 40 μl (˜2 mg of diltiazem hydrochloride) of the test solution was inhaled. The inhaled dose was sub-therapeutic in nature as it was much less than the IV injection marketed in the U.S. as 5 mg/ml in 5 ml vials.

[4] = test system: induced atrial fibrillation; assay: Induced atrial fibrillation model in anesthetized dogs, intratracheal (IT) administration; type: in vivo, dog; settings: for cardiovascular effect when given intratracheally (summary): summary of study; for conversion of atrial fibrillation to normal sinus rhythm: pulmonary (intratracheal/inhalation route)
Protocol: A venous catheter was placed in a peripheral vessel (i.e., cephalic) for administration of anesthetic. For anesthesia induction, all animals were given morphine sulfate (˜2 mg/kg) and a bolus of alpha chloralose (˜100 mg/kg) intravenously through the venous catheter. Anesthesia was sustained with alpha chloralose (35-75 mg/kg/hour IV), until completion of the study (<2 hours). Following induction, animals were endotracheally intubated and mechanically ventilated (˜12 breaths/minute with a tidal volume of 200-300 mL). Subsequently, a cut-down on a jugular vein permitted introduction of a pacing lead into the right atrium. Transthoracic electrodes forming ECG lead II were placed. For test/vehicle article delivery, a 4F catheter was introduced through the trachea and wedged into a small airway, and a venous catheter was placed in a peripheral vessel (i.e., cephalic). Following instrumentation and hemodynamic stabilization (for at least 15 minutes), phenylephrine was continuously infused (2 ug/kg/min IV) to elevate the systemic arterial pressure and increase vagal (parasympathetic) efferent activity for the duration of the study. Approximately 5 min after administration of this parasympathomimetic was started; the following experiments were performed: First, the right atrium was paced (20 V, 40 Hz, 4 ms pulse) for 15 minutes, and following pacing discontinuation, atrial fibrillation ensued. Approximately 3 minutes after pacing was stopped and atrial fibrillation was observed, the animals were given vehicle (˜3 mL) intra-tracheally (IT); the duration between dosing and, (if observed) the return to sinus rhythm and/or the ventricular rate was noted. Observations were made for up to 10 minutes. Subsequently, atrial fibrillation was re-established via 15-minute pacing cycle(s), as described above. Once pacing was discontinued and atrial fibrillation was observed/stable for 3 minutes, the animals were administered the vehicle or one of the test articles, delivered as a bolus (˜3 mL) directly into a small airway through the intratracheal catheter. Vehicle was only water. In the case of flecainide as the test article, the concentration was 15 mg of flecainide/3 ml of water. Following dosing, the duration between cessation of administration and, if observed, return to sinus rhythm and/or ventricular rate were noted; observations were made for up to 10 minutes.

[5] = Preformulation: properties of solutions in water (pH, isotonicity, appearance); type: physicochemical
Protocol: To evaluate the solubilities of flecainide acetate and diltiazem hydrochloride in water and to evaluate the acceptability of taste and aftertaste of these two drugs for administration as liquid aerosols. The following solution strengths were prepared for taste evaluation: (1) diltiazem hydrochloride—50 mg/ml solution in distilled water; and (2) flecainide acetate—30 mg/ml solution in distilled water.

[6] = physchem; type: physicochemical
Description: To evaluate the solubilities of flecainide acetate and diltiazem hydrochloride in water and to evaluate the acceptability of taste and aftertaste of these two drugs for administration as liquid aerosols.

[7] = pulmonary dose 0.25 mg/kg body weight
[8] = pulmonary dose between 2-4 mg/kg body weight

SMILES: CCCCCCCCCCCCCCCC(=O)OC[C@H](COP(=O)([O-])OCC[N+](C)(C)C)OC(=O)CCCCCCCCCCCCCCC [DPPC, dipalmitoylphosphatidylcholine]
- solubility of the phospholipid in water [1]: about 10^−10 mol/L

SMILES: Nc1ncnc2c1ncn2[C@@H]1O[C@H](CO)[C@@H](O)[C@H]1O [adenosine]
- effect on the heart ([2]; administered via the lung): did not have any effect on the heart
- cardiovascular effect when given intratracheally (summary) [2]: clear response was not observed

SMILES: COc1ccc([C@@H]2Sc3ccccc3N(CCN(C)C)C(=O)[C@@H]2OC(C)=O)cc1.Cl [diltiazem, diltiazem hydrochloride]
- PR interval ([2]; IV or pulmonary route (0.25 mg/kg per FIGS. 14 and 15)): prolonged the PR interval
- timing of the electrophysiological change ([2]; IV vs pulmonary): comparable between IV and pulmonary
- Mean Arterial Pressure (MAP) ([2]; dog, in vivo, iv, 0.25 mg/kg): dropped significantly in both cases
- comparison of pulmonary and IV routes ([2]; pulmonary vs IV (0.25 mg/kg per FIGS. 14 and 15)): comparable in all aspects
- burning sensations in the mouth, throat, or lungs [3]: No burning sensations was felt in the mouth, throat, or lungs
- visible adverse events [3]: No visible adverse events were observed
- mean arterial blood pressure (MAP) ([4]; dog, in vivo, 0.25 mg/kg): notable drop in mean arterial blood pressure
- heart rate ([4]; inhalation route, dose not stated): reduced heart rate
- cardiovascular effect when given intratracheally (summary) ([4]; intratracheal): clear cardiovascular effect
- conversion of atrial fibrillation to normal sinus rhythm ([4]; dose not stated, hydrochloride): rapidly converted the Atrial Fibrillation to normal sinus rhythm
- PQ interval [4, 7]: prolonged the PQ
- heart rate [4, 7]: slowed down marginally
- conversion of induced atrial fibrillation to normal sinus rhythm ([4]; pulmonary dose 0.25 mg/kg body weight, hydrochloride, 0.25 mg/kg): converted the induced atrial fibrillation to normal sinus rhythm
- conversion of induced atrial fibrillation to normal sinus rhythm ([4]; pulmonary dose 0.25 mg/kg body weight, listed as diltiazem HCl, hydrochloride, 0.25 mg/kg): Afib converting
- pH of solution in water ([5]; 3.5 mg/mL solution in water): 6.7
- isotonicity of solution in water (% to isotonic) ([5]; 50 mg/mL in water): about 80%
- appearance of solution ([5]; 50 mg/ml solution in distilled water): clear with no visible particulate matter
- solubility [6]: > 90 mg/mL

SMILES: CN(CCOc1ccc(NS(C)(=O)=O)cc1)CCc1ccc(NS(C)(=O)=O)cc1 [dofetilide]
- heart rate ([4]; escalating pulmonary doses of 10-40 mcg/kg body weight): minor reduction in heart rate
- ventricular rate ([4]; intratracheal, dose not stated): marginally slowed the ventricular rate
- cardiovascular effect when given intratracheally (summary) ([4]; intratracheal): probable effect

SMILES: COC(=O)CCc1ccc(OCC(O)CNC(C)C)cc1 (stereo not drawn) [esmolol, esmolol HCL]
- period of AV block (FIGS. 17, 18) ([2]; 0.5 mg/kg administered via the lung): AV block induced
- period of AV block (FIG. 20) ([2]; 0.75 mg/kg administered via the lung): AV block induced
- drop in MAP ([2]; delivered via the lung, any of the doses): did not cause a drop in MAP
- cardiovascular effect when given intratracheally (summary) [2]: probable effect
- PR intervals in the ECG traces ([2]; via the lung (IT), elevating doses): affecting the PR intervals
- electrophysiological effects ([2]; via the lung (IT), higher dose 1.0 mg/kg): did not produce the same electrophysiological effects
- AV block ([2]; via the lung (IT), lower doses): 2nd degree AV block

SMILES: O=C(NCC1CCCCN1)c1cc(OCC(F)(F)F)ccc1OCC(F)(F)F (stereo not drawn) [flecainide, flecainide acetate]
- burning sensations in the mouth, throat, or lungs [3]: No burning sensations was felt in the mouth, throat, or lungs
- visible adverse events [3]: No visible adverse events were observed
- conversion of Afib (ECG trace, FIG. 12) ([4]; 2 mg/kg body weight): Afib converting as soon as dosing occurred
- conversion of Afib to normal sinus rhythm (ECG trace, FIG. 11) ([4]; 4 mg/kg body weight): Afib converting into normal sinus rhythm
- cardiovascular effect when given intratracheally (summary) ([4]; intratracheal): clear cardiovascular effect
- conversion of atrial fibrillation to normal sinus rhythm ([4]; dose not stated): rapidly converted the Atrial Fibrillation to normal sinus rhythm
- adverse events such as proarrhythmia [4, 8]: Neither dogs exhibited any known adverse events such as proarrhythmia
- conversion of induced atrial fibrillation to normal sinus rhythm [4, 8]: converted the induced atrial fibrillation to normal sinus rhythm
- drop in mean arterial pressure [4, 8]: None to minimal drop in mean arterial pressure
- ventricular rate ([4]; pulmonary, large doses): slower ventricular rates
- pH of solution in water ([5]; 2.6 mg/mL solution in water): 5.0
- isotonicity of solution in water (% to isotonic) ([5]; 30 mg/mL in water): about 50%
- appearance of solution ([5]; 30 mg/ml solution in distilled water): clear with no visible particulate matter
- solubility ([6]; water): ~30 mg/mL
